Test results: patent publication US20250257086A1, “EGFR DEGRADATION AGENT” (Beijing Tide Pharmaceutical Co., Ltd., priority 2022, published 2025)

Each molecule was assayed against Ba/F3 (EGFR^L858R/T790M/C797S) cells (Homo sapiens, UniProt P00533, T790M/C797S/L858R, cells depend on it) (assay: Antiproliferative activity on Ba/F3 (EGFR L858R/T790M/C797S) cells (CTG)). Conditions: 72h incubation, CTG luminescence, read-out: IC50 (nM), antiproliferative activity.
Chain of Ba/F3 (EGFR^L858R/T790M/C797S) cells (P00533 whole entry T790M/C797S/L858R): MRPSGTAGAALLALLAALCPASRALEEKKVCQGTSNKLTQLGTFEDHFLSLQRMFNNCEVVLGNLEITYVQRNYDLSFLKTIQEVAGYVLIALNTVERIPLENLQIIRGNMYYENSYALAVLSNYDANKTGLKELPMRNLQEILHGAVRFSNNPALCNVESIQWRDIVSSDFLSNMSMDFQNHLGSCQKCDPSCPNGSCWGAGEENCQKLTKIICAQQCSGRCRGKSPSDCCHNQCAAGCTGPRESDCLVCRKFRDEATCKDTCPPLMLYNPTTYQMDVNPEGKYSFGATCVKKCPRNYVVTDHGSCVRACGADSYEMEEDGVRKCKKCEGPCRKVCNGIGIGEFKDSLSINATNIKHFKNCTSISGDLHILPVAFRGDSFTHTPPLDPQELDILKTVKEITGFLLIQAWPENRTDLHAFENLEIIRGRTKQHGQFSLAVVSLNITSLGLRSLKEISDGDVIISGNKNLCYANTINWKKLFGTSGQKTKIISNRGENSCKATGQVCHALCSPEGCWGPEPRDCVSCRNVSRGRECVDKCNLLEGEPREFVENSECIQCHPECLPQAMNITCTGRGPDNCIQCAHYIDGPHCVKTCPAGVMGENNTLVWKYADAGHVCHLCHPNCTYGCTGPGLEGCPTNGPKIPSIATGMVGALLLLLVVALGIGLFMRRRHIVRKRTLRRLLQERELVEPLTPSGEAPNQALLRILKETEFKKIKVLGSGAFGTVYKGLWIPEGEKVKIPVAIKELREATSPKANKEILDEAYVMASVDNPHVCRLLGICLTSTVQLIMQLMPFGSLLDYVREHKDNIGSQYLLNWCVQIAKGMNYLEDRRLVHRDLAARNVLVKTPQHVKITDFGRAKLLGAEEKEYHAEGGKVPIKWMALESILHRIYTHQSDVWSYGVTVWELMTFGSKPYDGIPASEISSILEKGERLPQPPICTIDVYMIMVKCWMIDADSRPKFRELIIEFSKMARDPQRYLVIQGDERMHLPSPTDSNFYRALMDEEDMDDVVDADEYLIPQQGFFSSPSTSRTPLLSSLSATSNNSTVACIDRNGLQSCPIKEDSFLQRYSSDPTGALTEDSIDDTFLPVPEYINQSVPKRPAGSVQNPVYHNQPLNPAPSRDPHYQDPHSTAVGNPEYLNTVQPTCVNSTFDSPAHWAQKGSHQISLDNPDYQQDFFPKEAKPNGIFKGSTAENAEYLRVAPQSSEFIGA
Type: cell-based
Summary of the method: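 Luminescent CellTiter-Glo read-out on Ba/F3 cells carrying EGFR L858R/T790M/C797S. Inhibition normalised between untreated vehicle and a 10 μM positive drug. IC50 taken from a variable-slope four-parameter fit of inhibition against log compound concentration.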
A GI50 of 20.6 nM was found for `COc1cc(N2CCC(N3CCN(CCCC#Cc4cccc5c4CN(C4CCC(=O)NC4=O)C5=O)CC3)CC2)c(NC(=O)/C=C/C(F)(F)F)cc1Nc1ncc(Cl)c(Nc2ccc3nccnc3c2P(C)(C)=O)n1` (stereo not shown) [Compound D673, (E)-N-(5-((5-chloro-4-((5-(dimethylphosphoryl)quinoxalin-6-yl)amino)pyrimidin-2-yl)amino)-2-(4-(4-(5-(2-(2,6-dioxopiperidin-3-yl)-1-oxoisoindolin-4-yl)pent-4-yn-1-yl)piperazin-1-yl)piperidin-1-yl)-4-methoxyphenyl)-4,4,4-trifluorobut-2-enamide] in this work. A GI50 of 36.7 nM was found for `COc1cc(N2CCC(N3CCN(CCCC#Cc4cccc5c4CN(C4CCC(=O)NC4=O)C5=O)CC3)CC2)c(C)cc1Nc1ncc(Br)c(Nc2ccc3nccnc3c2N(C)S(C)(=O)=O)n1` (stereo not shown) [Compound D932] in this work. A GI50 of 15.1 nM was found for `CC#CC(=O)Nc1cc(Nc2ncc(Cl)c(Nc3ccc4nccnc4c3P(C)(C)=O)n2)c(OC)cc1N1CCC(N2CCN(CCCC#Cc3cccc4c3CN(C3CCC(=O)NC3=O)C4=O)CC2)CC1` (stereo not shown) [Compound D672, N-(5-((5-chloro-4-((5-(dimethylphosphoryl)quinoxalin-6-yl)amino)pyrimidin-2-yl)amino)-2-(4-(4-(5-(2-(2,6-dioxopiperidin-3-yl)-1-oxoisoindolin-4-yl)pent-4-yn-1-yl)piperazin-1-yl)piperidin-1-yl)-4-methoxyphenyl)but-2-ynamide] in this work. A GI50 of 258 nM was found for `COc1cc(N2CCC(N3CCN(CCCC#Cc4ccc5c(c4)CN(C4CCC(=O)NC4=O)C5=O)CC3)CC2)c(NC(=O)/C=C/C(F)(F)F)cc1Nc1ncc(Cl)c(Nc2ccccc2P(C)(C)=O)n1` (stereo not shown) [Compound D622, N-(5-((5-chloro-4-((2-(dimethylphosphoryl)phenyl)amino)pyrimidin-2-yl)amino)-2-(4-(4-(5-(2-(2,6-dioxopiperidin-3-yl)-1-oxoisoindolin-5-yl)pent-4-yn-1-yl)piperazin-1-yl)piperidin-1-yl)-4-methoxyphenyl)-4,4,4-trifluorobut-2-enamide] in this work. A GI50 of 86.8 nM was found for `C=CC(=O)Nc1cc(Nc2ncc(Br)c(Nc3ccccc3P(C)(C)=O)n2)c(OC)cc1N1CCC(N2CCN(CCCCC#Cc3cccc4c3CN(C3CCC(=O)NC3=O)C4=O)CC2)CC1` (stereo not shown) [Compound D479, N-(5-((5-bromo-4-((2-(dimethylphosphoryl)phenyl)amino)pyrimidin-2-yl)amino)-2-(4-(4-(6-(2-(2,6-dioxopiperidin-3-yl)-1-oxoisoindolin-4-yl)hex-5-yn-1-yl)piperazin-1-yl)piperidin-1-yl)-4-methoxyphenyl)acrylamide] in this work. A GI50 of 325 nM was found for `COc1cc(N2CCC(N3CCN(CCCC#Cc4cccc5c4CN(C4CCC(=O)NC4=O)C5=O)CC3)CC2)c(NC(=O)C#CCO)cc1Nc1ncc(Cl)c(Nc2ccccc2P(C)(C)=O)n1` (stereo not shown) [Compound D628, N-(5-((5-chloro-4-((2-(dimethylphosphoryl)phenyl)amino)pyrimidin-2-yl)amino)-2-(4-(4-(5-(2-(2,6-dioxopiperidin-3-yl)-1-oxoisoindolin-4-yl)pent-4-yn-1-yl)piperazin-1-yl)piperidin-1-yl)-4-methoxyphenyl)-4-hydroxybut-2-ynamide] in this work. A GI50 of 582 nM was found for `COc1cc(N2CCC(N3CCN(CCCCC#Cc4cccc5c4CN(C4CCC(=O)NC4=O)C5=O)CC3)CC2)c(NC(=O)/C=C/CN(C)C)cc1Nc1ncc(Cl)c(Nc2ccccc2P(C)(C)=O)n1` (stereo not shown) [Compound D556, (E)-N-(5-((5-chloro-4-((2-(dimethylphosphoryl)phenyl)amino)pyrimidin-2-yl)amino)-2-(4-(4-(6-(2-(2,6-dioxopiperidin-3-yl)-1-oxoisoindolin-4-yl)hex-5-yn-1-yl)piperazin-1-yl)piperidin-1-yl)-4-dimethoxyphenyl)-4-(dimethylamino)but-2-enamide] in this work.
